Test results published in the supplement of paper PMC10627819.

Columns and labels:
Assay in all cases: Bliss interaction score (quartile over a dose matrix) (fitness difference); higher = more antagonism (negative = synergy)
B. subtilis 168 = tested on: B. subtilis 168
How it was run: (§1)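 Fitness here means normalised growth, inferred for single drugs from the combination data. Growth was OD595 at entry into stationary phase, divided by the plate's robust no-drug mean and capped at 1. The Bliss score is observed minus expected fitness, with the expectation being the product, and its quartiles span technical, biological and donor/recipient replicates.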

S. aureus Newman = tested on: S. aureus Newman
How it was run: as §1

S. pneumoniae D39V = tested on: S. pneumoniae D39V
How it was run: as §1

S. aureus DSM 20231 = tested on: S. aureus DSM 20231
How it was run: as §1
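Also: first quartile when negative (synergy) and third quartile when positive (antagonism).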

Structure (SMILES)	Bliss interaction score (B. subtilis 168; main component drawn)	Bliss interaction score (S. aureus Newman; main component drawn)	Bliss interaction score (S. pneumoniae D39V; main component drawn)	Bliss interaction score (S. aureus DSM 20231; main component drawn)	Bliss interaction score (B. subtilis 168)	Bliss interaction score (S. aureus Newman)	Bliss interaction score (S. pneumoniae D39V)	Bliss interaction score (S. aureus DSM 20231)
CC[C@H]1OC(=O)[C@H](C)[C@@H](O[C@H]2C[C@@](C)(OC)[C@@H](O)[C@H](C)O2)[C@H](C)[C@@H](O[C@@H]2O[C@H](C)C[C@H](N(C)C)[C@H]2O)[C@](C)(O)C[C@@H](C)C(=O)[C@H](C)[C@@H](O)[C@]1(C)O [Erythromycin] + CCCCCCCCCC(=O)N[C@@H]1[C@H]([C@@H]([C@H](O[C@H]1OC2=C3C=C4C=C2OC5=C(C=C(C=C5)[C@H]([C@H]6C(=O)N[C@@H](C7=C(C(=CC(=C7)O)OC8[C@H]([C@H]([C@@H]([C@H](O8)CO)O)O)O)C9=C(C=CC(=C9)[C@H](C(=O)N6)NC(=O)[C@@H]4NC(=O)[C@@H]1C2=CC(=CC(=C2)OC2=C(C=CC(=C2)[C@H](C(=O)N[C@H](CC2=CC(=C(O3)C=C2)Cl)C(=O)N1)N)O)O)O)C(=O)O)O[C@H]1[C@@H]([C@H]([C@@H]([C@H](O1)CO)O)O)NC(=O)C)Cl)CO)O)O [Teicoplanin]	-0.046	0.154	0.0581	0.0621				
CC[C@H](C)[C@H](N)C1=N[C@H](C(=O)N[C@@H](CC(C)C)C(=O)N[C@H](CCC(=O)O)C(=O)N[C@H](C(=O)N[C@H]2CCCCNC(=O)[C@H](CC(N)=O)NC(=O)[C@@H](CC(=O)O)NC(=O)[C@H](Cc3cnc[nH]3)NC(=O)[C@@H](Cc3ccccc3)NC(=O)[C@H]([C@@H](C)CC)NC(=O)[C@@H](CCCN)NC2=O)[C@@H](C)CC)CS1 [Bacitracin] + CC(=O)O[C@H]1C[C@@]2(C)[C@@H](C[C@@H](O)[C@H]3[C@@]4(C)CC[C@@H](O)[C@@H](C)[C@@H]4CC[C@@]32C)/C1=C(\CCC=C(C)C)C(=O)O [Fusidic acid]	-0.166	-0.0273	-0.0749	0.012				
CC[C@H]1OC(=O)[C@H](C)[C@@H](O[C@H]2C[C@@](C)(OC)[C@@H](O)[C@H](C)O2)[C@H](C)[C@@H](O[C@@H]2O[C@H](C)C[C@H](N(C)C)[C@H]2O)[C@](C)(O)C[C@@H](C)C(=O)[C@H](C)[C@@H](O)[C@]1(C)O [Erythromycin] + CC1=C\[C@@H](O)CC(=O)Cc2nc(co2)C(=O)N2CCC=C2C(=O)O[C@H](C(C)C)[C@H](C)/C=C/C(=O)NC\C=C\1 [Virginiamycin M1]					-0.0578	0.066	0.0687	0.0769
CO[C@@]12[C@H](COC(N)=O)C3=C(C(=O)C(C)=C(N)C3=O)N1C[C@@H]1N[C@@H]12 [MitomycinC] + CN1C2=CC=CC=C2N=C3C1=CC=CC3=O [Pyocyanin]					0.0608	-0.0681	0.0705	0.0464
CC[C@H]1OC(=O)[C@H](C)[C@@H](O[C@H]2C[C@@](C)(OC)[C@@H](O)[C@H](C)O2)[C@H](C)[C@@H](O[C@@H]2O[C@H](C)C[C@H](N(C)C)[C@H]2O)[C@](C)(O)C[C@@H](C)C(=O)[C@H](C)[C@@H](O)[C@]1(C)O [Erythromycin] + CN[C@@H]1[C@H](O[C@H]2[C@H](O[C@H]3[C@H](O)[C@@H](O)[C@H](N=C(N)N)[C@@H](O)[C@@H]3N=C(N)N)O[C@@H](C)[C@]2(O)C=O)O[C@@H](CO)[C@H](O)[C@H]1O [Streptomycin]					0.0844	-0.0695	-0.0481	0.0256
CN[C@@H]1[C@H](O[C@H]2[C@H](O[C@H]3[C@H](O)[C@@H](O)[C@H](N=C(N)N)[C@@H](O)[C@@H]3N=C(N)N)O[C@@H](C)[C@]2(O)C=O)O[C@@H](CO)[C@H](O)[C@H]1O [Streptomycin] + Oc1cc(Cl)ccc1Oc1ccc(Cl)cc1Cl [Triclosan]					-0.249	-0.0312	0.0606	-0.06
CN[C@@H]1[C@H](O[C@H]2[C@H](O[C@H]3[C@H](O)[C@@H](O)[C@H](N=C(N)N)[C@@H](O)[C@@H]3N=C(N)N)O[C@@H](C)[C@]2(O)C=O)O[C@@H](CO)[C@H](O)[C@H]1O [Streptomycin] + Cc1cc(NS(=O)(=O)c2ccc(N)cc2)no1 [Sulfamethoxazol]					-0.126	0.0497	0.0624	0.0929
CC[C@H]1OC(=O)[C@H](C)[C@@H](O[C@H]2C[C@@](C)(OC)[C@@H](O)[C@H](C)O2)[C@H](C)[C@@H](O[C@@H]2O[C@H](C)C[C@H](N(C)C)[C@H]2O)[C@](C)(O)C[C@@H](C)C(=O)[C@H](C)[C@@H](O)[C@]1(C)O [Erythromycin] + CCC[C@@H]1C[C@@H](C(=O)N[C@@H]([C@H]2O[C@H](SC)[C@H](O)[C@@H](O)[C@H]2O)[C@@H](C)O)N(C)C1 [Lincomycin]					0.107	-0.1	0.0856	-0.0609
CC[C@H](C)[C@H](N)C1=N[C@H](C(=O)N[C@@H](CC(C)C)C(=O)N[C@H](CCC(=O)O)C(=O)N[C@H](C(=O)N[C@H]2CCCCNC(=O)[C@H](CC(N)=O)NC(=O)[C@@H](CC(=O)O)NC(=O)[C@H](Cc3cnc[nH]3)NC(=O)[C@@H](Cc3ccccc3)NC(=O)[C@H]([C@@H](C)CC)NC(=O)[C@@H](CCCN)NC2=O)[C@@H](C)CC)CS1 [Bacitracin] + CC1(C)S[C@@H]2[C@H](NC(=O)Cc3ccccc3)C(=O)N2[C@H]1C(=O)O [PenicillinG]	-0.164	0.0689	-0.0799	0.0263				
CC[C@H]1OC(=O)[C@H](C)[C@@H](O[C@H]2C[C@@](C)(OC)[C@@H](O)[C@H](C)O2)[C@H](C)[C@@H](O[C@@H]2O[C@H](C)C[C@H](N(C)C)[C@H]2O)[C@](C)(O)C[C@@H](C)C(=O)[C@H](C)[C@@H](O)[C@]1(C)O [Erythromycin] + C[C@@H]1O[C@@H]1P(=O)(O)O [Fosfomycin]					0.116	-0.073	0.0627	-0.0365
CC[C@H]1OC(=O)[C@H](C)[C@@H](O[C@H]2C[C@@](C)(OC)[C@@H](O)[C@H](C)O2)[C@H](C)[C@@H](O[C@@H]2O[C@H](C)C[C@H](N(C)C)[C@H]2O)[C@](C)(O)C[C@@H](C)C(=O)[C@H](C)[C@@H](O)[C@]1(C)O [Erythromycin] + Clc1ccc(COC(Cn2ccnc2)c2ccc(Cl)cc2Cl)c(Cl)c1 [Miconazole]					-0.0519	0.0457	0.114	0.0299
CC[C@H]1OC(=O)[C@H](C)[C@@H](O[C@H]2C[C@@](C)(OC)[C@@H](O)[C@H](C)O2)[C@H](C)[C@@H](O[C@@H]2O[C@H](C)C[C@H](N(C)C)[C@H]2O)[C@](C)(O)C[C@@H](C)C(=O)[C@H](C)[C@@H](O)[C@]1(C)O [Erythromycin] + CN[C@@H]1[C@H](O)[C@H](NC)[C@H]2O[C@@]3(O)C(=O)C[C@@H](C)O[C@H]3O[C@@H]2[C@H]1O [Spectinomycin]					-0.093	-0.172	-0.0547	-0.0696
CN[C@H](CC(C)C)C(=O)N[C@H]1C(=O)N[C@@H](CC(N)=O)C(=O)N[C@H]2C(=O)N[C@H]3C(=O)N[C@H](C(=O)N[C@H](C(=O)O)c4cc(O)cc(O)c4-c4cc3ccc4O)[C@H](O[C@H]3C[C@](C)(N)[C@@H](O)[C@H](C)O3)c3ccc(c(Cl)c3)Oc3cc2cc(c3O[C@@H]2O[C@H](CO)[C@@H](O)[C@H](O)[C@H]2O[C@H]2C[C@](C)(NCc3ccc(-c4ccc(Cl)cc4)cc3)[C@@H](O)[C@H](C)O2)Oc2ccc(cc2Cl)[C@H]1O [Oritavancin] + C/C(=C\C(=O)OCCCCCCCCC(=O)O)C[C@@H]1OC[C@H](C[C@@H]2O[C@H]2[C@@H](C)[C@H](C)O)[C@@H](O)[C@H]1O [Pseudomonic acid]					0.0341	0.0197	0.0558	0.0201
CC[C@H]1OC(=O)[C@H](C)[C@@H](O[C@H]2C[C@@](C)(OC)[C@@H](O)[C@H](C)O2)[C@H](C)[C@@H](O[C@@H]2O[C@H](C)C[C@H](N(C)C)[C@H]2O)[C@](C)(O)C[C@@H](C)C(=O)[C@H](C)[C@@H](O)[C@]1(C)O [Erythromycin] + Cc1onc(-c2ccccc2)c1C(=O)N[C@@H]1C(=O)N2[C@@H]1SC(C)(C)[C@@H]2C(=O)O [Oxacillin]					-0.0427	0.0255	0.0509	0.0345
CC[C@H]1OC(=O)[C@H](C)[C@@H](O[C@H]2C[C@@](C)(OC)[C@@H](O)[C@H](C)O2)[C@H](C)[C@@H](O[C@@H]2O[C@H](C)C[C@H](N(C)C)[C@H]2O)[C@](C)(O)C[C@@H](C)C(=O)[C@H](C)[C@@H](O)[C@]1(C)O [Erythromycin] + Cn1nnc(-c2ccc(-c3ccc(N4C[C@H](CO)OC4=O)cc3F)cn2)n1 [Tedizolid]					-0.0574	-0.07	0.0787	-0.0541
CN[C@@H]1[C@H](O)[C@H](NC)[C@H]2O[C@@]3(O)C(=O)C[C@@H](C)O[C@H]3O[C@@H]2[C@H]1O [Spectinomycin] + Oc1cc(Cl)ccc1Oc1ccc(Cl)cc1Cl [Triclosan]					-0.0762	0.0626	0.0557	-0.0648
CN[C@@H]1[C@H](O[C@H]2[C@H](O[C@H]3[C@H](O)[C@@H](O)[C@H](N=C(N)N)[C@@H](O)[C@@H]3N=C(N)N)O[C@@H](C)[C@]2(O)C=O)O[C@@H](CO)[C@H](O)[C@H]1O [Streptomycin] + CC[C@H]1OC(=O)[C@H](C)C(=O)[C@H](C)[C@@H](O[C@@H]2O[C@H](C)C[C@H](N(C)C)[C@H]2O)[C@](C)(OC)C[C@@H](C)C(=O)[C@H](C)[C@H]2N(CCCCn3cnc(-c4cccnc4)c3)C(=O)O[C@]12C [Telithromycin]					0.0819	-0.109	-0.0487	0.0793
CC[C@H](C)[C@H](N)C1=N[C@H](C(=O)N[C@@H](CC(C)C)C(=O)N[C@H](CCC(=O)O)C(=O)N[C@H](C(=O)N[C@H]2CCCCNC(=O)[C@H](CC(N)=O)NC(=O)[C@@H](CC(=O)O)NC(=O)[C@H](Cc3cnc[nH]3)NC(=O)[C@@H](Cc3ccccc3)NC(=O)[C@H]([C@@H](C)CC)NC(=O)[C@@H](CCCN)NC2=O)[C@@H](C)CC)CS1 [Bacitracin] + CC[C@H]1OC(=O)[C@H](C)C(=O)[C@H](C)[C@@H](O[C@@H]2O[C@H](C)C[C@H](N(C)C)[C@H]2O)[C@](C)(OC)C[C@@H](C)C(=O)[C@H](C)[C@H]2N(CCCCn3cnc(-c4cccnc4)c3)C(=O)O[C@]12C [Telithromycin]	-0.0381	-0.047	0.0263	-0.0302				
CO[C@@H]1[C@@H](OC(N)=O)[C@@H](O)[C@H](Oc2ccc3c(O)c(NC(=O)c4ccc(O)c(CC=C(C)C)c4)c(=O)oc3c2C)OC1(C)C [Novobiocin] + CC[C@H]1OC(=O)[C@H](C)C(=O)[C@H](C)[C@@H](O[C@@H]2O[C@H](C)C[C@H](N(C)C)[C@H]2O)[C@](C)(OC)C[C@@H](C)C(=O)[C@H](C)[C@H]2N(CCCCn3cnc(-c4cccnc4)c3)C(=O)O[C@]12C [Telithromycin]					0.0833	-0.0192	0.0464	0.0515
CO[C@@]12[C@H](COC(N)=O)C3=C(C(=O)C(C)=C(N)C3=O)N1C[C@@H]1N[C@@H]12 [MitomycinC] + COc1c(N2C[C@@H]3CCCN[C@@H]3C2)c(F)cc2c(=O)c(C(=O)O)cn(C3CC3)c12 [Moxifloxacin]					0.0263	-0.099	0.056	0.07
